Test results: the kinase profiling compilation of Christmann-Franck et al. (2016)

Tests used:
Assay in all cases: KINOMEscan competition binding
Conditions in all cases: compound 1.0 µM
CSNK1G1 (human) = CSNK1G1 (human) (UniProt Q9HCP0)
STK25 (human) = STK25 (human) (UniProt O00506)
MAPK12 (human) = MAPK12 (human) (UniProt P53778)
STK17A (human) = STK17A (human) (UniProt Q9UEE5)
DDR1 (human) = DDR1 (human) (UniProt Q08345)
MAP4K3 (human) = MAP4K3 (human) (UniProt Q8IVH8)
TIE1 (human) = TIE1 (human) (UniProt P35590)
RIOK2 (human) = RIOK2 (human) (UniProt Q9BVS4)
CDK17 (human) = CDK17 (human) (UniProt Q00537)
ICK (human) = ICK (human) (UniProt Q9UPZ9)
FER (human) = FER (human) (UniProt P16591)
NTRK1 (human) = NTRK1 (human) (UniProt P04629)
MYO3B (human) = MYO3B (human) (UniProt Q8WXR4)
BTK (human) = BTK (human) (UniProt Q06187)
CHUK (human) = CHUK (human) (UniProt O15111)
PDGFRB (human) = PDGFRB (human) (UniProt P09619)
MAP4K4 (human) = MAP4K4 (human) (UniProt O95819)
CAMK1D (human) = CAMK1D (human) (UniProt Q8IU85)
DMPK (human) = DMPK (human) (UniProt Q09013)
TNNI3K (human) = TNNI3K (human) (UniProt Q59H18)
[1] = tested on: KIT (human), P10721 [L576P]
MAPKAPK2 (human) = MAPKAPK2 (human) (UniProt P49137)
SYK (human) = SYK (human) (UniProt P43405)
DYRK2 (human) = DYRK2 (human) (UniProt Q92630)
PIM1 (human) = PIM1 (human) (UniProt P11309)
[2] = tested on: ABL1 (human), P00519 [Y253F]
[3] = tested on: ABL1 (human), P00519 [T315I]
MAP3K12 (human) = MAP3K12 (human) (UniProt Q12852)
SIK1 (human) = SIK1 (human) (UniProt P57059)
[4] = tested on: FLT3 (human), P36888 [ITD]
SIK3 (human) = SIK3 (human) (UniProt Q9Y2K2)
MAP3K5 (human) = MAP3K5 (human) (UniProt Q99683)
GSK3A (human) = GSK3A (human) (UniProt P49840)
MAPK3 (human) = MAPK3 (human) (UniProt P27361)
CDK8 (human) = CDK8 (human) (UniProt P49336)
HIPK3 (human) = HIPK3 (human) (UniProt Q9H422)
FGFR4 (human) = FGFR4 (human) (UniProt P22455)
SIK2 (human) = SIK2 (human) (UniProt Q9H0K1)
RPS6KA1 KD1 (human) = RPS6KA1 KD1 (human) (UniProt Q15418)
CAMK2D (human) = CAMK2D (human) (UniProt Q13557)

Sequence of SIK3 (human) (Q9Y2K2 whole entry, looked up): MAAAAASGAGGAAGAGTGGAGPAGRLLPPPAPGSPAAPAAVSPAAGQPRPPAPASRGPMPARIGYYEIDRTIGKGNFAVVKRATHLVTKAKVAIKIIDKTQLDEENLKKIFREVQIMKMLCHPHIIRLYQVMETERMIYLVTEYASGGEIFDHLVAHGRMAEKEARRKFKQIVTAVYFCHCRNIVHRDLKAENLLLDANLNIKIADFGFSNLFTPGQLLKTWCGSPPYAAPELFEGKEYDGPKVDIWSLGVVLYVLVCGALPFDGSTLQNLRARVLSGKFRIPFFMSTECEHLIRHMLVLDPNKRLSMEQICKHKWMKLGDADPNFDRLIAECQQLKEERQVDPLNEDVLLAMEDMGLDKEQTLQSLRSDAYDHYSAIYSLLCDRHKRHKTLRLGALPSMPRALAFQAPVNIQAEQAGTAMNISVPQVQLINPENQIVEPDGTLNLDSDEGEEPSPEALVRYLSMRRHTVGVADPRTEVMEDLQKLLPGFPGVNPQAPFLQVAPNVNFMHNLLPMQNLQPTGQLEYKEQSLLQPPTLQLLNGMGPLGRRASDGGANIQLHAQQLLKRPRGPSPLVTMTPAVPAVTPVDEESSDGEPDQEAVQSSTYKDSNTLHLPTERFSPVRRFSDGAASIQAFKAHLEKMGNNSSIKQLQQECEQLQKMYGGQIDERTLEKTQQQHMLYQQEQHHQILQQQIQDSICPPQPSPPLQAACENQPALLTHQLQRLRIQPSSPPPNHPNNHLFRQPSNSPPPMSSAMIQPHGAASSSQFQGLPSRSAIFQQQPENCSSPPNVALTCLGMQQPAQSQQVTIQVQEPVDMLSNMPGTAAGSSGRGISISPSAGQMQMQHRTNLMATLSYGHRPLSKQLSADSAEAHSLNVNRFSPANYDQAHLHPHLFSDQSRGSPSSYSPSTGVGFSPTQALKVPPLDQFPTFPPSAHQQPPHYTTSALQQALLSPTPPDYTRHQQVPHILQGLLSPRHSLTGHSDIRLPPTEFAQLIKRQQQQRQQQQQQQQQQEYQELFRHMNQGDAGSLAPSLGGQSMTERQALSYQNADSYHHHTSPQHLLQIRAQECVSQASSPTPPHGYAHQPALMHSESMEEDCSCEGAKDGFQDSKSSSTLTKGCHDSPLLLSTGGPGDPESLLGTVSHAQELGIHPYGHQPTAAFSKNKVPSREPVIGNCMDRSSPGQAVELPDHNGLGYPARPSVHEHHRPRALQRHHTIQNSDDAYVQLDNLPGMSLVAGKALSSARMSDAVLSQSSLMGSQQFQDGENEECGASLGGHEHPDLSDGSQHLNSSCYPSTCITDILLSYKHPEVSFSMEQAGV
Sequence of BTK (human) (Q06187 whole entry, looked up): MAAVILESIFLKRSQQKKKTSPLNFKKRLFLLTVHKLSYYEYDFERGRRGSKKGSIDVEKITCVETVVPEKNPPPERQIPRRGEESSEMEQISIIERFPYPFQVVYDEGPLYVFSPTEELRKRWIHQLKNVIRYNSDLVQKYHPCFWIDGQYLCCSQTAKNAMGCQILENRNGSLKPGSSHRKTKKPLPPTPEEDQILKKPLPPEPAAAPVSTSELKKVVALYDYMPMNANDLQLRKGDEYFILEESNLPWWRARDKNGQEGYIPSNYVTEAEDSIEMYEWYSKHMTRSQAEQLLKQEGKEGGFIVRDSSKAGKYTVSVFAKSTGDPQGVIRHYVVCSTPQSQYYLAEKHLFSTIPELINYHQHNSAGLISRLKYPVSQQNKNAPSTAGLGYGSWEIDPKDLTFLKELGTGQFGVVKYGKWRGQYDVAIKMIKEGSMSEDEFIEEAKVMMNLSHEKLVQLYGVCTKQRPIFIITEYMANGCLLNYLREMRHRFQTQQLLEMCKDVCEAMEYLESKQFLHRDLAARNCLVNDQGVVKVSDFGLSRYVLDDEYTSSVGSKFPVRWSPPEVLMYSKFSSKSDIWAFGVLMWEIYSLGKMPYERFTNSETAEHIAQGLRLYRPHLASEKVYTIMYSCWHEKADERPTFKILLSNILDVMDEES
Sequence of MAP3K12 (human) (Q12852 whole entry, looked up): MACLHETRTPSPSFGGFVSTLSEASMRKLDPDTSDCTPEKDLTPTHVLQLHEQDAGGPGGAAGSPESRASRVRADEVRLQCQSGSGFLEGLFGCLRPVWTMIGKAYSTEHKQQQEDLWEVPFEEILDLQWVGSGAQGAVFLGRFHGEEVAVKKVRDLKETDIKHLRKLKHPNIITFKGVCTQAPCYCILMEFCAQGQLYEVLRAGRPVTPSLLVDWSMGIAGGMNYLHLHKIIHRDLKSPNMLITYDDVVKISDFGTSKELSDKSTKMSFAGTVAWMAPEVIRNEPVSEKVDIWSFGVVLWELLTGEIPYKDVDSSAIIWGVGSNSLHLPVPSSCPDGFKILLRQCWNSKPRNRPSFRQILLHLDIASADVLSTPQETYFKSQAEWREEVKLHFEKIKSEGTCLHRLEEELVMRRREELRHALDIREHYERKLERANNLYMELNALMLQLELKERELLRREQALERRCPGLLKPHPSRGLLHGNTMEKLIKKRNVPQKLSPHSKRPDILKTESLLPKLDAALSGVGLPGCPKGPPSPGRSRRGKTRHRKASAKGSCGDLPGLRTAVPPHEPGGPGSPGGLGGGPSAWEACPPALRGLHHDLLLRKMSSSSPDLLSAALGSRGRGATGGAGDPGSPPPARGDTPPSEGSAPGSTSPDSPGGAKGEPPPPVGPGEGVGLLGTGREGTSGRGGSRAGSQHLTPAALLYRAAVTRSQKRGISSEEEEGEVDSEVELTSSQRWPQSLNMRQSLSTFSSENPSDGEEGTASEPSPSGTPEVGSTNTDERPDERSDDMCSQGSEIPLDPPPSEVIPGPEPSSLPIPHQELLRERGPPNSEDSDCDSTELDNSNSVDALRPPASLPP
Sequence of CSNK1G1 (human) (Q9HCP0 whole entry, looked up): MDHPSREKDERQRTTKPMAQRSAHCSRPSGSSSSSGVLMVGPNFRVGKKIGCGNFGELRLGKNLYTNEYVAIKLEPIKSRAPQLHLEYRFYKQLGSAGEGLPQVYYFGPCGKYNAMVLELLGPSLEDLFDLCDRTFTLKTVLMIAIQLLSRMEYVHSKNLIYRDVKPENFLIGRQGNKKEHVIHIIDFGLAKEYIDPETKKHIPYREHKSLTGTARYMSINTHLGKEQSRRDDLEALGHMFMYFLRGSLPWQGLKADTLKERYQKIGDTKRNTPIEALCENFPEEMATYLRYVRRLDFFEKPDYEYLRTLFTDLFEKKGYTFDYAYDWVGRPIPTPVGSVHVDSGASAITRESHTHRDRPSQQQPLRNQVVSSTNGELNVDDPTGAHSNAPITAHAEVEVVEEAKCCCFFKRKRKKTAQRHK
Sequence of MAPK12 (human) (P53778 whole entry, looked up): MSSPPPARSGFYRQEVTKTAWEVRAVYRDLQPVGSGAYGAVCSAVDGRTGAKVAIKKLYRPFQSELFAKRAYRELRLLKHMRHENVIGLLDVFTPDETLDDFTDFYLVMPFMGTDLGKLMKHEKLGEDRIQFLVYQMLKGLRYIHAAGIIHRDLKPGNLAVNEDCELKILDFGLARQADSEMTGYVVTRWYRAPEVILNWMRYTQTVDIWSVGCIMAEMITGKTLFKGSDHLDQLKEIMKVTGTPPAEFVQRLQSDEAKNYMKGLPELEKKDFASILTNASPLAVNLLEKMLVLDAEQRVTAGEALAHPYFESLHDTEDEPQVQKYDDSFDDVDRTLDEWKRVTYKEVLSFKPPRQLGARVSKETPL
Sequence of FGFR4 (human) (P22455 whole entry, looked up): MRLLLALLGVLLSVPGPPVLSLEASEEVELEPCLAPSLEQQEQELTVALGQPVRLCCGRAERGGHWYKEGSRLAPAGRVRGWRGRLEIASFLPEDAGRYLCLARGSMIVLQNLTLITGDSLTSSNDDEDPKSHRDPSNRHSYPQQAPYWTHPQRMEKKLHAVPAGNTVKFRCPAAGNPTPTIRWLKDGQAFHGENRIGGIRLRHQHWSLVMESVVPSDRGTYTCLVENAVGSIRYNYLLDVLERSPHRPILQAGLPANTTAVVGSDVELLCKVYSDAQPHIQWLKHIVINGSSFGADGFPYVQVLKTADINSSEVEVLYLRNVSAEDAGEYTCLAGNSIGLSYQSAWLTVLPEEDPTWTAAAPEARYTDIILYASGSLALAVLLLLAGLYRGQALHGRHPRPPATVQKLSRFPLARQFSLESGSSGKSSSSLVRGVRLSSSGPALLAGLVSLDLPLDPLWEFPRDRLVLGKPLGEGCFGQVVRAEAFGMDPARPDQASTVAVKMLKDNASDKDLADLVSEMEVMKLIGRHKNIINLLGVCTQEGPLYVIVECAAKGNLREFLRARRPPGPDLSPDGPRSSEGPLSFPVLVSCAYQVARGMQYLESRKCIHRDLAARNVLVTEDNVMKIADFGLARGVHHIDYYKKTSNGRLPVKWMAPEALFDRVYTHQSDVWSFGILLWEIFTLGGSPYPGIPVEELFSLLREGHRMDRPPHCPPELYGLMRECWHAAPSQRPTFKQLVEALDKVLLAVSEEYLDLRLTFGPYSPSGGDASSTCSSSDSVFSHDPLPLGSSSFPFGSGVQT
Sequence of ICK (human) (Q9UPZ9 whole entry, looked up): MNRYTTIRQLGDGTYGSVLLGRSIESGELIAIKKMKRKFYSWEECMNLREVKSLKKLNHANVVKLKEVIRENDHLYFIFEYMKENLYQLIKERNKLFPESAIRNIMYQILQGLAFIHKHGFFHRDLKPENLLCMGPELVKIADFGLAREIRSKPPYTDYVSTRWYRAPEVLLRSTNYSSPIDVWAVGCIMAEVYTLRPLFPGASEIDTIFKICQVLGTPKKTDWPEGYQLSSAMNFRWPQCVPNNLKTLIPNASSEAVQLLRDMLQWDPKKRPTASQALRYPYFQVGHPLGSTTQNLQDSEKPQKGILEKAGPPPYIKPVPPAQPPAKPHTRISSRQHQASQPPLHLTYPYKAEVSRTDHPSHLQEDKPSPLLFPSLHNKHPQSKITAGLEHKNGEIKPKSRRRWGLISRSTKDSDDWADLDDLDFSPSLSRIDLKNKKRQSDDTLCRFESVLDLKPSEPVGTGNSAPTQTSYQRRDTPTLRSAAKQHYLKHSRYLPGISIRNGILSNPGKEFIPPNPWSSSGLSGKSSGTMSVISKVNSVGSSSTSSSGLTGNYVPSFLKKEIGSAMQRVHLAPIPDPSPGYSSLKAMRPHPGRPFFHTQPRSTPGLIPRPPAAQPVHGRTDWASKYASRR

For `Nc1cc(C(F)(F)F)c(-c2cc(N3CCOCC3)nc(N3CCOCC3)n2)cn1`, the inhibition of binding (CSNK1G1 (human)) was 25%, the inhibition of binding (STK25 (human)) was 0% and the inhibition of binding (MAPK12 (human)) was 17%. The inhibition of binding (STK17A (human)) was 0%, the inhibition of binding (DDR1 (human)) was 7% and the inhibition of binding (MAP4K3 (human)) was 0%. It also gave an inhibition of binding (TIE1 (human)) of 0%, an inhibition of binding (RIOK2 (human)) of 0% and an inhibition of binding (CDK17 (human)) of 26%. It also gave an inhibition of binding (ICK (human)) of 0%, an inhibition of binding (FER (human)) of 0% and an inhibition of binding (NTRK1 (human)) of 4%. For the same compound, the inhibition of binding (MYO3B (human)) was 1%, the inhibition of binding (BTK (human)) was 6% and the inhibition of binding (CHUK (human)) was 29%. For the same compound, the inhibition of binding (PDGFRB (human)) was 0%, the inhibition of binding (MAP4K4 (human)) was 9% and the inhibition of binding (CAMK1D (human)) was 0%. The inhibition of binding (DMPK (human)) was 0%, the inhibition of binding (TNNI3K (human)) was 0% and the inhibition of binding [1] was 0%. The inhibition of binding (MAPKAPK2 (human)) was 0%, the inhibition of binding (SYK (human)) was 0% and the inhibition of binding (DYRK2 (human)) was 20%. For the same compound, the inhibition of binding (PIM1 (human)) was 2%, the inhibition of binding [2] was 0% and the inhibition of binding [3] was 2%. For the same compound, the inhibition of binding (MAP3K12 (human)) was 0%, the inhibition of binding (SIK1 (human)) was 0% and the inhibition of binding [4] was 0%. For the same compound, the inhibition of binding (SIK3 (human)) was 0%, the inhibition of binding (MAP3K5 (human)) was 1% and the inhibition of binding (GSK3A (human)) was 42%. The inhibition of binding (MAPK3 (human)) was 1%, the inhibition of binding (CDK8 (human)) was 0% and the inhibition of binding (HIPK3 (human)) was 0%. The inhibition of binding (FGFR4 (human)) was 0%, the inhibition of binding (SIK2 (human)) was 0% and the inhibition of binding (RPS6KA1 KD1 (human)) was 0%. The inhibition of binding (CAMK2D (human)) was 0%.
